Test results reported in patent US10077463B2, “Optical selection of cells” (President and Fellows of Harvard College, priority 2015, dated 2018).

Columns and labels:
[1] = test system: MDCK cells; assay: Photostick of MDCK cells (violet light crosslinking, ACCUTASE development); format: cell-based, Canine
[2] = test system: MDCK cells; format: cell-based; settings: 4 μM, 407 nm light 825 J/cm^2
[3] = test system: MDCK cells; assay: Cell entry by high magnification fluorescence imaging; format: cell-based, Canine; settings: 4 μM, fluorescence localized to the cell membrane
[4] = test system: rat hippocampal neurons; assay: Photostick of a single neuron chosen by Optopatch firing pattern; format: cell-based; settings: 15 μM, 407 nm light 2200 J/cm^2, ACCUTASE 6 min 37° C.

**Q.** Which results are given for CC[N+]1=C(/C=C/C=C2/N(CCCCCC(=O)NCCNC(=O)CCSSCCNC(=O)C(CCCCNC(=O)CCCCC3SCC4NC(=O)NC43)NC(=O)c3ccc(N=[N+]=N)cc3)c3ccc(S(=O)(=O)O)cc3C2(C)C)C(C)(C)c2cc(S(=O)(=O)O)ccc21 (stereo not drawn) [Cy3-SBED]?
**A.** Cells in the dark region removed [1]: 99.96%; Cells within the illuminated region retained (photostuck cells remained) [1]: 98.7%; Non-photostuck cells remained [1]: 0.04%; Cell doubling time post-photostick [2]: 34 h; Entry into cells (intracellular fluorescence) [3]: did not enter the cells; Retention of selected neuron after ACCUTASE (in words) [4]: the selected neuron remained
